This is an account of results in the supplement of paper PMC11208160.

The data set can be described thus: recombinant barcode read abundance after kanamycin selection (control-corrected) (log10(CPM+1)); higher = more efficient recombination; sequences stand for … in AGTGCAGAGAAAATCGGCCAGTTTTCTCTGCCTGCAGTCCGCATGCCGT…AGATTTATGCAGCGGACTGCCTTTCTCCCAAAGTGATAAACCGGACAGTATCATGGACCGGTTTTCCCGGTAATCCGTATTTGCAAGGTTGGTTTCACT; site = the 11-nt target. As for the experimental part:
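Pooled E. coli target-specificity screen for the IS621 bridge recombinase. Each library plasmid pairs an 11-nt target (CT core) with a bridge RNA whose target-binding loop (9-nt LTG + 4-nt RTG) is reprogrammed; the rest of the 177-nt WT IS621 bridge RNA scaffold is fixed. The plasmid is co-electroporated with a WT donor plasmid; recombinase is induced with 0.1 mM IPTG and recombinants are selected on kanamycin. Recombinant barcodes are sequenced, converted to CPM, averaged over two biological replicates and corrected by the unselected control CPM. Molecule = full bridge RNA written as DNA: LTG = specificity nt 1-9, RTG = reverse complement of specificity nt 8-11, in the WT scaffold.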
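Further: IS621 recombinase and bridge RNA in Escherichia coli cells.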

“AAAGGTTCTTGGGTTCTAACCTGTTGCCT (site ACAGGTTCTAG)”: the “recombinant barcode read abundance (log10)” value worked out at 0.0935.

Take “AAAGGTTCTTGGGTTCTAACCTGTTGCCT (site AGAGGTTCTAG)”: the “recombinant barcode read abundance (log10)” value is 0.0624.

In the case of “AAAGGTTCTTGGGTTCTAACCTGTTGCCT (site ATAGGTTCTAG)”, the “recombinant barcode read abundance (log10)” value stood at 0.126.

As to “AAAGTACCTTGGGTTCTAACCTGTTGCCT (site AAAGTACCTAG)”, the “recombinant barcode read abundance (log10)” value stood at 2.

“AAAGTACCTTGGGTTCTAACCTGTTGCCT (site CAAGTACCTAG)”: the “recombinant barcode read abundance (log10)” value came out at 0.741.

Take “AAAGTACCTTGGGTTCTAACCTGTTGCCT (site GAAGTACCTAG)”: the “recombinant barcode read abundance (log10)” value was found to be 0.0449.

Turning to “AAAGTACCTTGGGTTCTAACCTGTTGCCT (site TAAGTACCTAG)”, the “recombinant barcode read abundance (log10)” value amounted to 1.16.

In the case of “AAAGTCCCTTGGGTTCTAACCTGTTGCCT (site AAAGTCCCTAG)”, the “recombinant barcode read abundance (log10)” value stood at 1.03.

As to “AAAGTCCCTTGGGTTCTAACCTGTTGCCT (site CAAGTCCCTAG)”, the “recombinant barcode read abundance (log10)” value worked out at 0.361.

“AAAGTCCCTTGGGTTCTAACCTGTTGCCT (site GAAGTCCCTAG)”: the “recombinant barcode read abundance (log10)” value is 0.218.

As to “AAAGTCCCTTGGGTTCTAACCTGTTGCCT (site TAAGTCCCTAG)”, the “recombinant barcode read abundance (log10)” value was determined as 0.481.

Turning to “AAATGGTCTTGGGTTCTAACCTGTTGCTA (site AAACGGTCTTA)”, the “recombinant barcode read abundance (log10)” value was found to be 0.814.

Take “AAATGGTCTTGGGTTCTAACCTGTTGCTA (site AAATGGTCTTA)”: the “recombinant barcode read abundance (log10)” value is 1.69.

“AAATGTACTTGGGTTCTAACCTGTTGCCT (site AAATGTACTAG)”: the “recombinant barcode read abundance (log10)” value was determined as 1.04.

In the case of “AAATGTACTTGGGTTCTAACCTGTTGCCT (site TGGGTCCCTTC)”, the “recombinant barcode read abundance (log10)” value was 0.0555.

Regarding “AACAATGCTTGGGTTCTAACCTGTTGCCT (site AACAATGCTAG)”, the “recombinant barcode read abundance (log10)” value came to 0.713.

As to “AACAATGCTTGGGTTCTAACCTGTTGCCT (site AACACTGCTAG)”, the “recombinant barcode read abundance (log10)” value came to 0.33.

With “AACAATGCTTGGGTTCTAACCTGTTGCCT (site AACAGTGCTAG)”, the “recombinant barcode read abundance (log10)” value was 0.207.

“AACAATGCTTGGGTTCTAACCTGTTGCCT (site AACATTGCTAG)”: the “recombinant barcode read abundance (log10)” value worked out at 0.0444.

As for “AACAGACCTTGGGTTCTAACCTGTTGCCT (site AACAGACCTAG)”, the “recombinant barcode read abundance (log10)” value was 1.62.

With “AACAGACCTTGGGTTCTAACCTGTTGCCT (site CACAGACCTAG)”, the “recombinant barcode read abundance (log10)” value stood at 0.116.

For “AACAGACCTTGGGTTCTAACCTGTTGCCT (site GACAGACCTAG)”, the “recombinant barcode read abundance (log10)” value is 0.291.

In the case of “AACAGACCTTGGGTTCTAACCTGTTGCCT (site TACAGACCTAG)”, the “recombinant barcode read abundance (log10)” value came out at 0.686.

On to “AACAGGGCTTGGGTTCTAACCTGTTGCCG (site AACAGGGCTCG)”, for which the “recombinant barcode read abundance (log10)” value stood at 1.22.

“AACAGGGCTTGGGTTCTAACCTGTTGCCG (site TGGCATCCTAC)”: the “recombinant barcode read abundance (log10)” value was 0.0251.

In the case of “AACAGGTCTTGGGTTCTAACCTGTTGCCT (site AACAGGTCTAG)”, the “recombinant barcode read abundance (log10)” value came out at 0.902.

For the sequence “AACAGGTCTTGGGTTCTAACCTGTTGCCT (site ACCAGGTCTAG)”, the “recombinant barcode read abundance (log10)” value turned out to be 0.175.

As for “AACAGGTCTTGGGTTCTAACCTGTTGCCT (site AGCAGGTCTAG)”, the “recombinant barcode read abundance (log10)” value turned out to be 0.0529.

Take “AACAGGTCTTGGGTTCTAACCTGTTGCCT (site ATCAGGTCTAG)”: the “recombinant barcode read abundance (log10)” value was 0.0485.

With “AACATTCCTTGGGTTCTAACCTGTTGCCT (site AACATTCCTAG)”, the “recombinant barcode read abundance (log10)” value came to 0.151.

Take “AACATTCCTTGGGTTCTAACCTGTTGCCT (site CACATTCCTAG)”: the “recombinant barcode read abundance (log10)” value is 0.

Turning to “AACATTCCTTGGGTTCTAACCTGTTGCCT (site GACATTCCTAG)”, the “recombinant barcode read abundance (log10)” value amounted to 0.355.

As for “AACATTCCTTGGGTTCTAACCTGTTGCCT (site TACATTCCTAG)”, the “recombinant barcode read abundance (log10)” value was determined as 0.0261.

For the sequence “AACATTGCTTGGGTTCTAACCTGTTGCCT (site AACAATGCTAG)”, the “recombinant barcode read abundance (log10)” value is 0.765.

Take “AACATTGCTTGGGTTCTAACCTGTTGCCT (site AACACTGCTAG)”: the “recombinant barcode read abundance (log10)” value was determined as 0.695.

“AACATTGCTTGGGTTCTAACCTGTTGCCT (site AACAGTGCTAG)”: the “recombinant barcode read abundance (log10)” value stood at 0.372.

As for “AACATTGCTTGGGTTCTAACCTGTTGCCT (site AACATTGCTAG)”, the “recombinant barcode read abundance (log10)” value stood at 0.979.

Take “AACCATCCTTGGGTTCTAACCTGTTGCCT (site AACCAGCCTAG)”: the “recombinant barcode read abundance (log10)” value is 0.0589.

“AACCATCCTTGGGTTCTAACCTGTTGCCT (site AACCATCCTAG)”: the “recombinant barcode read abundance (log10)” value worked out at 1.51.

As to “AACCTTACTTGGGTTCTAACCTGTTGCCT (site AACCTTACTAG)”, the “recombinant barcode read abundance (log10)” value was determined as 0.631.

In the case of “AACCTTACTTGGGTTCTAACCTGTTGCCT (site ACCCTTACTAG)”, the “recombinant barcode read abundance (log10)” value was 0.122.

Take “AACCTTACTTGGGTTCTAACCTGTTGCCT (site AGCCTTACTAG)”: the “recombinant barcode read abundance (log10)” value was 0.0388.

Regarding “AACCTTACTTGGGTTCTAACCTGTTGCCT (site ATCCTTACTAG)”, the “recombinant barcode read abundance (log10)” value worked out at 0.0245.

For the sequence “AACGAGTCTTGGGTTCTAACCTGTTGCCT (site AACGAGTCTAG)”, the “recombinant barcode read abundance (log10)” value was found to be 1.03.

Take “AACGAGTCTTGGGTTCTAACCTGTTGCCT (site ACCGAGTCTAG)”: the “recombinant barcode read abundance (log10)” value is 0.152.

“AACGAGTCTTGGGTTCTAACCTGTTGCCT (site AGCGAGTCTAG)”: the “recombinant barcode read abundance (log10)” value turned out to be 0.0187.

For “AACGAGTCTTGGGTTCTAACCTGTTGCCT (site ATCGAGTCTAG)”, the “recombinant barcode read abundance (log10)” value turned out to be 0.244.

Consider “AACTAAACTTGGGTTCTAACCTGTTGCCT (site AACTAAACTAG)”, for which the “recombinant barcode read abundance (log10)” value was determined as 1.02.

In the case of “AACTAAACTTGGGTTCTAACCTGTTGCCT (site AACTCAACTAG)”, the “recombinant barcode read abundance (log10)” value was 0.0768.

With “AACTAAACTTGGGTTCTAACCTGTTGCCT (site AACTGAACTAG)”, the “recombinant barcode read abundance (log10)” value was 0.181.

For “AACTAAACTTGGGTTCTAACCTGTTGCCT (site AACTTAACTAG)”, the “recombinant barcode read abundance (log10)” value turned out to be 0.0783.

For “AACTATCCTTGGGTTCTAACCTGTTGCAT (site AACTATCCTAT)”, the “recombinant barcode read abundance (log10)” value stood at 0.227.

In the case of “AACTATCCTTGGGTTCTAACCTGTTGCAT (site AACTCTCCTAT)”, the “recombinant barcode read abundance (log10)” value worked out at 0.109.

Consider “AACTATCCTTGGGTTCTAACCTGTTGCAT (site AACTGTCCTAT)”, for which the “recombinant barcode read abundance (log10)” value was determined as 0.00638.

Turning to “AACTATCCTTGGGTTCTAACCTGTTGCAT (site AACTTTCCTAT)”, the “recombinant barcode read abundance (log10)” value turned out to be 0.196.

With “AAGACAACTTGGGTTCTAACCTGTTGCGG (site AAGACAACTCC)”, the “recombinant barcode read abundance (log10)” value worked out at 1.64.

For the sequence “AAGACAACTTGGGTTCTAACCTGTTGCGG (site TGCCTGCCTAG)”, the “recombinant barcode read abundance (log10)” value is 0.042.

For “AAGACTCCTTGGGTTCTAACCTGTTGCCT (site AAGACTCCTAG)”, the “recombinant barcode read abundance (log10)” value stood at 0.824.

Take “AAGACTCCTTGGGTTCTAACCTGTTGCCT (site AAGTCTCCTAG)”: the “recombinant barcode read abundance (log10)” value amounted to 0.0612.

As to “AAGAGCACTTGGGTTCTAACCTGTTGCCT (site AAGAGCACTAG)”, the “recombinant barcode read abundance (log10)” value worked out at 1.17.

For the sequence “AAGAGCACTTGGGTTCTAACCTGTTGCCT (site CAGAGCACTAG)”, the “recombinant barcode read abundance (log10)” value was determined as 0.0257.

“AAGAGCACTTGGGTTCTAACCTGTTGCCT (site GAGAGCACTAG)”: the “recombinant barcode read abundance (log10)” value is 0.0862.

For “AAGAGCACTTGGGTTCTAACCTGTTGCCT (site TAGAGCACTAG)”, the “recombinant barcode read abundance (log10)” value was determined as 0.315.

“AAGATAGCTTGGGTTCTAACCTGTTGCCT (site AAGAAAGCTAG)”: the “recombinant barcode read abundance (log10)” value turned out to be 0.192.

Take “AAGATAGCTTGGGTTCTAACCTGTTGCCT (site AAGACAGCTAG)”: the “recombinant barcode read abundance (log10)” value was determined as 0.147.

“AAGATAGCTTGGGTTCTAACCTGTTGCCT (site AAGAGAGCTAG)”: the “recombinant barcode read abundance (log10)” value came out at 0.164.

For “AAGATAGCTTGGGTTCTAACCTGTTGCCT (site AAGATAGCTAG)”, the “recombinant barcode read abundance (log10)” value was 1.59.

Turning to “AAGCCCACTTGGGTTCTAACCTGTTGCGG (site AAGCCCACTCC)”, the “recombinant barcode read abundance (log10)” value is 2.28.

In the case of “AAGCCCACTTGGGTTCTAACCTGTTGCGG (site CGCGTTGCTAG)”, the “recombinant barcode read abundance (log10)” value turned out to be 0.561.

On to “AAGCCGCCTTGGGTTCTAACCTGTTGCTT (site AAGCCGCCTAA)”, for which the “recombinant barcode read abundance (log10)” value was determined as 0.906.

Regarding “AAGCCGCCTTGGGTTCTAACCTGTTGCTT (site TCAATAGCTGT)”, the “recombinant barcode read abundance (log10)” value was 0.35.

Consider “AAGCTCCCTTGGGTTCTAACCTGTTGCCT (site AAGCTCCCTAG)”, for which the “recombinant barcode read abundance (log10)” value is 1.6.

Turning to “AAGCTCCCTTGGGTTCTAACCTGTTGCCT (site ACACTCCCTAG)”, the “recombinant barcode read abundance (log10)” value stood at 0.242.
